Assay results: patent publication US20240199605A1, “SMALL MOLECULAR INHIBITORS OF NF-kB INDUCING KINASE” (Janssen Pharmaceutica NV, priority 2019, published 2024)
Where two headings read alike, the source gives them in different places.

Key:
[1] = target: recombinant human NF-kappaB-inducing kinase (NIK/MAP3K14) (Homo sapiens (Human), UniProt Q99558); assay: Inhibition of auto-phosphorylation of recombinant human NIK/MAP3K14 (AlphaScreen); assay type: biochemical; details: NIK auto-phosphorylation, 5 μM ATP, 1 nM NIK, 2 h at 25° C.; average of values
Chain of recombinant human NF-kappaB-inducing kinase (NIK/MAP3K14) (Q99558 whole entry): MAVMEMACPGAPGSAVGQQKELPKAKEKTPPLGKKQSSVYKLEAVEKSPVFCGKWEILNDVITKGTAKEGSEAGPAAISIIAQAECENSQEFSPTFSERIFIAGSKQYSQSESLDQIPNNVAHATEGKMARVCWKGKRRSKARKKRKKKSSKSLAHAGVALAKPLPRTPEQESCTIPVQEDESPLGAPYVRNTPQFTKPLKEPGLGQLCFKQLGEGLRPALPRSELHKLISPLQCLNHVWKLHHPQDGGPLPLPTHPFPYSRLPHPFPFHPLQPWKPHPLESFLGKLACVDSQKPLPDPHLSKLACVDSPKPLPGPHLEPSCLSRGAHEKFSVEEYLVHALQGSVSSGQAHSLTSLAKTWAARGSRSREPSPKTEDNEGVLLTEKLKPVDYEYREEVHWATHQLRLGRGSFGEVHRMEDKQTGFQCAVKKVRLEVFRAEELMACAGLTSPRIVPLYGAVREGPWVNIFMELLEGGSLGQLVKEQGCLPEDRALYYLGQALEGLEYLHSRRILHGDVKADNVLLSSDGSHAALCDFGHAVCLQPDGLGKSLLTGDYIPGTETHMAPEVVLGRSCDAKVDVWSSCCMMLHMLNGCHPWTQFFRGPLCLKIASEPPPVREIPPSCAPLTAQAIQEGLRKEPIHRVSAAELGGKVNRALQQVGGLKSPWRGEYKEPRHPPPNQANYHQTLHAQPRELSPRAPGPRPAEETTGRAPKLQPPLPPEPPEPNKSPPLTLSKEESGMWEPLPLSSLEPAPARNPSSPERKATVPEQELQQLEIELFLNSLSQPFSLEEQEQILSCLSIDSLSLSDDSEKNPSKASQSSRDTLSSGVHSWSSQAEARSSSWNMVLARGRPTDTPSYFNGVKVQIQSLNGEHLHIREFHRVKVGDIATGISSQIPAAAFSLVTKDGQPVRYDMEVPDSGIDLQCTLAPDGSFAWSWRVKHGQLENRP
How it was run: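 AlphaScreen read-out (anti-phospho-IKK Ser176/180 antibody, Protein A acceptor and glutathione donor beads) of NIK auto-phosphorylation. Reaction: 1 nM enzyme, 5 μM ATP, Tris pH 7.5 buffer with Mg2+ and vanadate, 2 h at 25° C., final DMSO 0.7%. IC50 came from a sigmoidal curve fit.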

[2] = system: p-IKKα levels in L363 (NIK translocated multiple myeloma) cells; assay: Effect of compounds on p-IKKα levels in L363 cells (AlphaLISA SureFire Ultra); assay type: cell-based, human; details: BAFF stimulated, MG132, 6 h, average of values, read-out: Assay 2 IC50
How it was run: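 Inhibition of p-IKKα (Ser176/180) read by AlphaLISA after 6 h, 37 °C compound exposure (11-point 1:3 series, 0.3% DMSO) of L363 cells pre-incubated overnight ± 250 ng/ml BAFF and plated ± BAFF ± 10 μM MG132. Normalised to BAFF/MG132/DMSO and unstimulated controls; IC50 by sigmoidal fitting, duplicates.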

Row | SMILES | IC50 [1] [µM] | IC50 ([2]; Homo sapiens, L-363, 6 h) [µM] | IC50 [2] [µM]
1 | Cc1[nH]ncc1-c1cnc(N)c2nc(-c3cccc(C#C[C@]4(O)CCN(C)C4=O)c3)ncc12 [Example 127, (R)-3-[2-[3-[8-Amino-5-(5-methyl-1H-pyrazol-4-yl)pyrido[3,4-d]pyrimidin-2-yl]phenyl]ethynyl]-3-hydroxy-1-methyl-pyrrolidin-2-one] | ≤ 0.0005 | 0.012 | 
2 | CN1CC[C@](O)(C#Cc2cccc(-c3ncc4cc[nH]c(=O)c4n3)c2)C1=O [Example 31, (S)-2-[3-[2-(3-Hydroxy-1-methyl-2-oxo-pyrrolidin-3-yl)ethynyl]phenyl]-7H-pyrido[3,4-d]pyrimidin-8-one] | 0.023 | 0.55 | 
3 | CN(C)Cc1cnc(N)c2nc(-c3cccc(C#C[C@]4(O)CCN(C)C4=O)c3)ccc12 [Example 172, (R)-3-[2-[3-[8-Amino-5-(dimethylaminomethyl)-1,7-naphthyridin-2-yl]phenyl]ethynyl]-3-hydroxy-1-methyl-pyrrolidin-2-one] | 0.02 | 0.4 | 
4 | Cc1nnc([C@](C)(O)C#Cc2ccc(C)c(-c3ncc4ccnc(N)c4n3)c2)o1 [Example 74, (R)-4-(3-(8-Aminopyrido[3,4-d]pyrimidin-2-yl)-4-methylphenyl)-2-(5-methyl-1,3,4-oxadiazol-2-yl)but-3-yn-2-ol] | 0.056 | 2.95 | 
5 | CN1CC[C@@](O)(C#Cc2cccc(N3CCCc4ncnc(N)c4C3)c2)C1=O [Example 224, (R)-3-((3-(4-Amino-5,7,8,9-tetrahydro-6H-pyrimido[5,4-c]azepin-6-yl)phenyl)ethynyl)-3-hydroxy-1-methylpyrrolidin-2-one] | 0.25 | > 5 | 
6 | CC(C)Nc1cc(-c2cccc(C#C[C@]3(O)CCN(C)C3=O)c2)nc2c(N)ncnc12 [Example 297, (R)-3-[2-[3-[4-Amino-8-(isopropylamino)pyrido[3,2-d]pyrimidin-6-yl]phenyl]ethynyl]-3-hydroxy-1-methyl-pyrrolidin-2-one] | 0.0019 | 0.031 | 
7 | Cc1nc(N)c2c(n1)CCN(c1cccc(C#C[C@]3(O)CCN(C)C3=O)c1)C2 [Example 215, (R)-3-((3-(4-Amino-2-methyl-7,8-dihydropyrido[4,3-d]pyrimidin-6(5H)-yl)phenyl)ethynyl)-3-hydroxy-1-methylpyrrolidin-2-one] | 0.016 | 0.9 | 
8 | CN1CC[C@@](O)(C#Cc2cccc(-c3nc(N4CCOCC4)c4ccnc(N)c4n3)c2)C1=O [Example 57, (R)-3-((3-(8-Amino-4-morpholinopyrido[3,4-d]pyrimidin-2-yl)phenyl)ethynyl)-3-hydroxy-1-methylpyrrolidin-2-one] | 0.0013 | 0.035 | 
9 | Cc1nnc([C@](C)(O)C#Cc2cccc(-c3ccc4ncnc(N)c4n3)c2)o1 [Example 97, (R)-4-(3-(4-Aminopyrido[3,2-d]pyrimidin-6-yl)phenyl)-2-(5-methyl-1,3,4-oxadiazol-2-yl)but-3-yn-2-ol] | 0.0008 | 0.046 | 
10 | CN1CC[C@@](O)(C#Cc2cccc(-c3ncc4c(-c5cnn(CCN)c5)cnc(N)c4n3)c2)C1=O [Example 134, (R)-3-[2-[3-[8-Amino-5-[1-(2-aminoethyl)pyrazol-4-yl]pyrido[3,4-d]pyrimidin-2-yl]phenyl]ethynyl]-3-hydroxy-1-methyl-pyrrolidin-2-one] | ≤ 0.0005 | 0.15 | 
11 | Cc1cc([C@](C)(O)C#Cc2ccc(C)c(-c3ncc4ccnc(N)c4n3)c2)no1 [Example 82, (R)-4-(3-(8-Aminopyrido[3,4-d]pyrimidin-2-yl)-4-methylphenyl)-2-(5-methylisoxazol-3-yl)but-3-yn-2-ol] | 0.031 | 2 | 
12 | CNc1nc(-c2cccc(C#C[C@]3(O)CCN(C)C3=O)c2)nc2c(N)nccc12 [Example 85, (R)-3-((3-(8-Amino-4-(methylamino)pyrido[3,4-d]pyrimidin-2-yl)phenyl)ethynyl)-3-hydroxy-1-methylpyrrolidin-2-one] | 0.0007 | 0.0061 | 
13 | Nc1nccc2ccc(-c3cccc(C#CC4(O)CCn5ccnc54)c3)nc12 (stereo in doubt) [Example 91, (R)-7-[2-[3-(8-Amino-1,7-naphthyridin-2-yl)phenyl]ethynyl]-5,6-dihydropyrrolo[1,2-a]imidazol-7-ol] | ≤ 0.0005 | 0.017 | 
14 | CN1CC[C@@](O)(C#Cc2cccc(-c3cc(C4CCC4)c4ncnc(N)c4n3)c2)C1=O [Example 309, (R)-3-((3-(4-Amino-8-cyclobutylpyrido[3,2-d]pyrimidin-6-yl)phenyl)ethynyl)-3-hydroxy-1-methylpyrrolidin-2-one] | ≤ 0.0005 | 0.0097 | 
15 | CN1CC[C@@](O)(C#Cc2cccc(-c3ccc4ncnc(N5CC(S(C)(=O)=O)C5)c4n3)c2)C1=O [Example 245, (R)-3-Hydroxy-1-methyl-3-((3-(4-(3-(methylsulfonyl)azetidin-1-yl)pyrido[3,2-d]pyrimidin-6-yl)phenyl)ethynyl)pyrrolidin-2-one] | 0.04 | 1.19 | 
16 | Cc1nc(N)c2nc(-c3cccc(C#C[C@@]4(O)CCN(C)C4=O)c3)ccc2n1 [Example 7, (S)-3-((3-(4-Amino-2-methylpyrido[3,2-d]pyrimidin-6-yl)phenyl)ethynyl)-3-hydroxy-1-methylpyrrolidin-2-one] | 0.17 | 2.3 | 
17 | Cc1nc(N)c2nc(-c3cccc(C#C[C@@]4(O)C[C@@H](C)N(C)C4=O)c3)ccc2n1 [Example 267, (3S,5R)-3-((3-(4-Amino-2-methylpyrido[3,2-d]pyrimidin-6-yl)phenyl)ethynyl)-3-hydroxy-1,5-dimethylpyrrolidin-2-one] | 0.385 | 2.83 | 
18 | CN1CC[C@@](O)(C#Cc2cccc(-c3ncc4c(Br)cnc(N)c4n3)c2)C1=O [Example 94, (R)-3-((3-(8-Amino-5-bromopyrido[3,4-d]pyrimidin-2-yl)phenyl)ethynyl)-3-hydroxy-1-methylpyrrolidin-2-one] | ≤ 0.0005 | 0.0042 | 
19 | Cc1nnc([C@](C)(O)C#Cc2cccc(-c3ncc4ccnc(N)c4n3)c2)o1 [Example 18, (R)-4-[3-(8-Aminopyrido[3,4-d]pyrimidin-2-yl)phenyl]-2-(5-methyl-1,3,4-oxadiazol-2-yl)but-3-yn-2-ol] | 0.0009 | 0.061 | 
20 | CN1CC[C@@](O)(C#Cc2cccc(-c3cc(C4CCN4)c4ncnc(N)c4n3)c2)C1=O (stereo partly drawn) [Example 313, (3R)-3-((3-(4-Amino-8-(azetidin-2-yl)pyrido[3,2-d]pyrimidin-6-yl-2-d)phenyl)ethynyl)-3-hydroxy-1-methylpyrrolidin-2-one] | 0.0031 |  | 0.231
21 | Cc1ccc(C#C[C@]2(O)CCn3ccnc32)cc1-c1ccc2ccnc(N)c2c1 [Example 81, (R)-7-[2-[3-(1-Amino-7-isoquinolyl)-4-methyl-phenyl]ethynyl]-5,6-dihydropyrrolo[1,2-a]imidazol-7-ol] | 0.011 | 1.98 | 
22 | Cc1cc(-c2cccc(C#C[C@@]3(O)C(=O)N(C)[C@@H]4C[C@@H]43)c2)nc2c(N)ncnc12 [Example 281, (1R,4R,5S)-4-((3-(4-Amino-8-methylpyrido[3,2-d]pyrimidin-6-yl)phenyl)ethynyl)-4-hydroxy-2-methyl-2-azabicyclo[3.1.0]hexan-3-one] | 0.0009 | 0.0077 | 
23 | Cc1nc(N)c2nc(-c3cccc(C#C[C@@]4(O)C(=O)N(C)C[C@@H]4C)c3)ccc2n1 (stereo in doubt) [Example 291, (3R,4S*)-3-((3-(4-Amino-2-methylpyrido[3,2-d]pyrimidin-6-yl)phenyl)ethynyl)-3-hydroxy-1,4-dimethylpyrrolidin-2-one] | 0.054 | 1.39 | 
24 | Cc1cc([C@](C)(O)C#Cc2cccc(-c3ccc4ncnc(N)c4n3)c2)no1 [Example 95, (R)-4-(3-(4-Aminopyrido[3,2-d]pyrimidin-6-yl)phenyl)-2-(5-methylisoxazol-3-yl)but-3-yn-2-ol] | 0.0008 | 0.028 | 
25 | CN1CC[C@@](O)(C#Cc2cccc(-c3cc(-c4ccccc4)c4ncnc(N)c4n3)c2)C1=O [Example 310, (R)-3-((3-(4-Amino-8-phenylpyrido[3,2-d]pyrimidin-6-yl)phenyl)ethynyl)-3-hydroxy-1-methylpyrrolidin-2-one] | 0.0007 | 0.013 | 
26 | CN1CC[C@@](O)(C#Cc2cccc(-c3nc(C(F)(F)F)c4ccnc(N)c4n3)c2)C1=O [Example 38, (R)-3-((3-(8-Amino-4-(trifluoromethyl)pyrido[3,4-d]pyrimidin-2-yl)phenyl)ethynyl)-3-hydroxy-1-methylpyrrolidin-2-one] | 0.0007 | 0.04 | 
27 | CN1CC[C@@](O)(C#Cc2cccc(-c3ccc4ncnc(C5CC5)c4n3)c2)C1=O [Example 270, (R)-3-((3-(4-Cyclopropylpyrido[3,2-d]pyrimidin-6-yl)phenyl)ethynyl)-3-hydroxy-1-methylpyrrolidin-2-one] | 0.026 | 1 | 
28 | Cc1nc(N)c2nc(-c3cccc(C#C[C@@](C)(O)c4cnc(C)s4)c3)ccc2n1 [Example 158, (R)-4-(3-(4-Amino-2-methylpyrido[3,2-d]pyrimidin-6-yl)phenyl)-2-(2-methylthiazol-5-yl)but-3-yn-2-ol] | 1.93 | > 5 | 
